Reference: ChEMBL document CHEMBL1201862, “PubChem BioAssay data set” (2004)
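Where inhibition never reached the appropriate level, the endpoint shown equals the highest concentration tested. Otherwise, values were interpolated linearly from a five-concentration, 48-hour dose response in 96-well plates. GI50 marks 50% less growth.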 Calls of active or inactive are those of the source. Rule as the data show it: active = GI50 up to about 1.1 µM and inactive = higher.

Legend:
Assay in all cases: NCI anticancer screen, dose series, 48 h
[1] = tested on: 786-0
[2] = tested on: CAKI-1
[3] = tested on: HCT-15
[4] = tested on: UO-31
[5] = tested on: HT-29
[6] = tested on: MOLT-4
[7] = tested on: A498
[8] = tested on: HCT-116
[9] = tested on: SN12C
[10] = tested on: A549
[11] = tested on: UACC-62
[12] = tested on: ACHN
[13] = tested on: SF-268
[14] = tested on: NCI-H522
[15] = tested on: SK-MEL-28
[16] = tested on: OVCAR-3
[17] = tested on: HCC 2998
[18] = tested on: UACC-257
[19] = tested on: LOX IMVI
[20] = tested on: NCI-H226

Compound | GI50 [1] | GI50 [2] | GI50 [3] | GI50 [4] | GI50 [5] | GI50 [6] | GI50 [7] | GI50 [8] | GI50 [9] | GI50 [10] | GI50 [11] | GI50 [12] | GI50 [13] | GI50 [14] | GI50 [15] | GI50 [16] | GI50 [17] | GI50 [18] | GI50 [19] | GI50 [20]
CC1(C)O[C@@H]2[C@@H](COC(C)(C)O[C@H]2C2SCCCS2)O1 | > 100 µM (inactive) | > 100 µM (inactive) | > 100 µM | > 100 µM (inactive) | > 100 µM (inactive) | > 100 µM (inactive) | > 100 µM (inactive) | > 100 µM (inactive) | > 100 µM (inactive) | > 100 µM (inactive) | > 100 µM (inactive) | > 100 µM (inactive) | > 100 µM (inactive) | > 100 µM (inactive) | > 100 µM (inactive) | > 100 µM (inactive) | > 100 µM (inactive) | – | – | –
CC1=C(c2cc(C(=O)Nc3ccc(Cl)cc3)nc(S)n2)Sc2ccccc2N1 | > 100 µM (inactive) | > 100 µM (inactive) | > 100 µM | > 100 µM (inactive) | > 100 µM (inactive) | – | > 100 µM (inactive) | > 100 µM (inactive) | > 100 µM (inactive) | > 100 µM (inactive) | > 100 µM (inactive) | > 100 µM (inactive) | > 100 µM (inactive) | > 100 µM (inactive) | > 100 µM (inactive) | > 100 µM (inactive) | > 100 µM (inactive) | > 100 µM (inactive) | > 100 µM (inactive) | –
CCOC(=O)/C(=C\NC[C@@H](C)O)c1nc2ccccc2[nH]1 | > 100 µM (inactive) | > 100 µM (inactive) | 73.3 µM | 0.33 µM (active) | 71.3 µM (inactive) | 0.238 µM (active) | 55 µM (inactive) | > 100 µM (inactive) | 93.1 µM (inactive) | 62.4 µM (inactive) | 40.9 µM (inactive) | 32.4 µM (inactive) | 60.7 µM (inactive) | 40.3 µM (inactive) | 57.3 µM (inactive) | 98.4 µM (inactive) | 37.4 µM (inactive) | 56 µM (inactive) | 96.8 µM (inactive) | –
CCOC(=O)CSC1NC(C(=O)OC)CC1OC (stereo unspecified) | > 100 µM (inactive) | > 100 µM (inactive) | > 100 µM | > 100 µM (inactive) | > 100 µM (inactive) | > 100 µM (inactive) | > 100 µM (inactive) | > 100 µM (inactive) | – | > 100 µM (inactive) | > 100 µM (inactive) | > 100 µM (inactive) | > 100 µM (inactive) | > 100 µM (inactive) | > 100 µM (inactive) | > 100 µM (inactive) | > 100 µM (inactive) | > 100 µM (inactive) | – | –
O=[N+]([O-])c1ccc(C(c2c[nH]c3ccccc23)c2c[nH]c3ccccc23)cc1 | 14.3 µM (inactive) | – | 11 µM | 10.9 µM (inactive) | 11.5 µM (inactive) | 9.66 µM (inactive) | 16.1 µM (inactive) | – | 14.4 µM (inactive) | 6.82 µM (inactive) | 10.5 µM (inactive) | 8.05 µM (inactive) | 8.85 µM (inactive) | – | 18.5 µM (inactive) | 1.94 µM (inactive) | 13.2 µM (inactive) | 3.03 µM (inactive) | 11.1 µM (inactive) | 10.7 µM (inactive)
CCOP(=O)(OCC)/C(C#N)=C/c1ccc(-c2cc(C(F)(F)F)cc(C(F)(F)F)c2)o1 | 12.2 µM (inactive) | – | 6.38 µM | 16.8 µM (inactive) | 6.55 µM (inactive) | 3.71 µM (inactive) | 12.4 µM (inactive) | 13.2 µM (inactive) | 15.1 µM (inactive) | 14.4 µM (inactive) | – | 12.7 µM (inactive) | 15.2 µM (inactive) | 10.4 µM (inactive) | 16.9 µM (inactive) | 8.02 µM (inactive) | 8.45 µM (inactive) | 16.3 µM (inactive) | 3.34 µM (inactive) | 14.8 µM (inactive)
Cc1cc(NS(=O)(=O)c2ccc(NC(=O)c3cccc4c(Nc5ccc(S(=O)(=O)Nc6cc(C)on6)cc5)c5ccc(Cl)cc5nc34)cc2)no1 | > 100 µM (inactive) | > 100 µM (inactive) | 45.9 µM | 25.3 µM (inactive) | > 100 µM (inactive) | 56 µM (inactive) | 55 µM (inactive) | 23.2 µM (inactive) | 51.2 µM (inactive) | 61.1 µM (inactive) | 35.2 µM (inactive) | 85.7 µM (inactive) | 34.5 µM (inactive) | 31.4 µM (inactive) | 41 µM (inactive) | 68.5 µM (inactive) | 56 µM (inactive) | > 100 µM (inactive) | 53.7 µM (inactive) | –
Cc1cc2c(cc1O)CC[C@@H]1[C@@H]2CC[C@]2(C)[C@@H](O)CC[C@@H]12 | 14.6 µM (inactive) | 16.9 µM (inactive) | 4.08 µM | 14.8 µM (inactive) | 17.1 µM (inactive) | 3.68 µM (inactive) | 18.7 µM (inactive) | – | 13.3 µM (inactive) | 8.02 µM (inactive) | – | 18.9 µM (inactive) | 15.5 µM (inactive) | 7.45 µM (inactive) | 10.8 µM (inactive) | – | 11.4 µM (inactive) | 15.3 µM (inactive) | 11 µM (inactive) | –
